Test results reported in paper PMC9841431 (Nucleic Acids Research, 2022).

Assays:
[1] = test system: M. tuberculosis mrx2 KO mutant (Δmrx2); assay type: cell-based; conditions: times higher
Mrx2 mutants = Mrx2 mutants (Mycobacterium tuberculosis, UniProt O53193, G95S); assay type: biochemical, M. tuberculosis

| Compound | MIC of Δmrx2 relative to M. tuberculosis H37Rv [1] [times] | Activity of Mrx2G95S against the compound (Mrx2 mutants) |
| --- | --- | --- |
| O=[N+]([O-])c1cc2cc3ccc4oc([N+](=O)[O-])cc4c3cc2o1 [nNF-C2, 2,8-Dinitronaphtho[2,1-b:7,6-b']difuran] | 8 | maintained its ability to metabolize |
| COC(=O)c1ccc2c(ccc3oc([N+](=O)[O-])cc32)c1 [nNF-C4, Methyl 2-nitronaphtho[2,1-b]furan-7-carboxylate] | 16 | – |
